Values belong to the molecule of their own block, whether it stands above or below them. Activity calls are given as the source filed them. Rule as the data show it, for most assays here: actives have a measured IC50 and inactives only a lower limit.
Tests used:
[1] = molecular target: T1, Sentrin-specific protease 8 (Homo sapiens, UniProt Q96LD8); assay: inhibition of sentrin protease 8 – biochemical, luminescence, set 2, SAR follow-up (AID 588601); type: functional
T1 sequence (Q96LD8 whole entry): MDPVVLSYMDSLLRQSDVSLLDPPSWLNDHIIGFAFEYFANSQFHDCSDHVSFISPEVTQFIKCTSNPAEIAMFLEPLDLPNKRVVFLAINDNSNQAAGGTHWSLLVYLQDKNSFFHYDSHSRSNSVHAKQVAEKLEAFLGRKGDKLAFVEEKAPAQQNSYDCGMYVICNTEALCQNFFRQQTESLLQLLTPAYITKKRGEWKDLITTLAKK

[2] = molecular target: T2, Caspase-3 (Homo sapiens, UniProt P42574); assay: SAR Analysis of small molecule inhibitors of Sentrin-specific proteases (SENPs) using a Caspase-3 Selectivity assay. [Related pubchem assays (depositor defined):AID2540, AID2599, AID434973, AID489001]; type: functional
T2 sequence (P42574 whole entry): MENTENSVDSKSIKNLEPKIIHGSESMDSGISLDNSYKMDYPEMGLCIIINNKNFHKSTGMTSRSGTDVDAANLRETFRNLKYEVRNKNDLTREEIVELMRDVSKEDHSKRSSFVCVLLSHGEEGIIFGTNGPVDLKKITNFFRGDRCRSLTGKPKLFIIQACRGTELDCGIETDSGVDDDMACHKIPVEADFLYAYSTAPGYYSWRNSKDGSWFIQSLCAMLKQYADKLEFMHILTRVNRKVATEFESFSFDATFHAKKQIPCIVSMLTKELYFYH

[3] = molecular target: T3, Sentrin-specific protease 6 (Homo sapiens, UniProt Q9GZR1); assay: SAR Analysis of small molecule inhibitors of Sentrin-specific protease 6 (SENP6) using a Luminescent assay. [Related pubchem assays (depositor defined):AID2582, AID2599]; type: functional
T3 sequence (Q9GZR1 whole entry): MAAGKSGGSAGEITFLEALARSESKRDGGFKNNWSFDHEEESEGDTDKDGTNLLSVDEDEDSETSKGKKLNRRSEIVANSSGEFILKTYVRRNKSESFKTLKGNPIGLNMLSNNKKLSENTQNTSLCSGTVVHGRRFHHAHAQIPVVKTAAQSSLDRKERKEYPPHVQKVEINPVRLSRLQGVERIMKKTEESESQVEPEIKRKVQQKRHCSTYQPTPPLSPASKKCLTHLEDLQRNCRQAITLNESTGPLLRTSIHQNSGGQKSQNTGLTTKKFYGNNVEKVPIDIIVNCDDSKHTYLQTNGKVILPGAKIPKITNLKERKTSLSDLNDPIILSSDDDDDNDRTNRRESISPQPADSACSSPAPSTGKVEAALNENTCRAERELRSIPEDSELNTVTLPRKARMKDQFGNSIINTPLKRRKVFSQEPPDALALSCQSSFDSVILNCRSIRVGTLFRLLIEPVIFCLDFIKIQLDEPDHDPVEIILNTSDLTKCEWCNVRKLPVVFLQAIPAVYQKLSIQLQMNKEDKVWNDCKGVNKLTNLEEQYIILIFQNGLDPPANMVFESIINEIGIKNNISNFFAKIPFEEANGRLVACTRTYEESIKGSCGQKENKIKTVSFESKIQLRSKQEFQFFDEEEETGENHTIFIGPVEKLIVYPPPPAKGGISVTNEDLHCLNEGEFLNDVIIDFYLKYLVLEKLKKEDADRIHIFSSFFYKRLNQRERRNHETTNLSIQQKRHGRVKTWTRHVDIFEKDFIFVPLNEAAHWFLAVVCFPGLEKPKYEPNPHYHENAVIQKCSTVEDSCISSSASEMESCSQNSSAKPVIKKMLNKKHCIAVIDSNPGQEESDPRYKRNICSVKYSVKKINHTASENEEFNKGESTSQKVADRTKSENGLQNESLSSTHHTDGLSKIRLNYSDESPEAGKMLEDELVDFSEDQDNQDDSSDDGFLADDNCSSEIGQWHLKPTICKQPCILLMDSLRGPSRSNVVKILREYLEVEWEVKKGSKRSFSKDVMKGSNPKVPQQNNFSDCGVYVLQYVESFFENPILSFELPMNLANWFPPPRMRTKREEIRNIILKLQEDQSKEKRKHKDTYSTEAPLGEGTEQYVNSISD

[4] = molecular target: T3, Sentrin-specific protease 6; assay: inhibition of human SENP6 catalytic domain – biochemical, luminescence, set 2, SAR follow-up (AID 588598); type: functional
[5] = molecular target: T4, Sentrin-specific protease 7 (Homo sapiens, UniProt Q9BQF6); assay: inhibition of human SENP7 cleavage activity – biochemical, luminescence, set 2, SAR follow-up (AID 588600); type: functional
T4 sequence (Q9BQF6 whole entry): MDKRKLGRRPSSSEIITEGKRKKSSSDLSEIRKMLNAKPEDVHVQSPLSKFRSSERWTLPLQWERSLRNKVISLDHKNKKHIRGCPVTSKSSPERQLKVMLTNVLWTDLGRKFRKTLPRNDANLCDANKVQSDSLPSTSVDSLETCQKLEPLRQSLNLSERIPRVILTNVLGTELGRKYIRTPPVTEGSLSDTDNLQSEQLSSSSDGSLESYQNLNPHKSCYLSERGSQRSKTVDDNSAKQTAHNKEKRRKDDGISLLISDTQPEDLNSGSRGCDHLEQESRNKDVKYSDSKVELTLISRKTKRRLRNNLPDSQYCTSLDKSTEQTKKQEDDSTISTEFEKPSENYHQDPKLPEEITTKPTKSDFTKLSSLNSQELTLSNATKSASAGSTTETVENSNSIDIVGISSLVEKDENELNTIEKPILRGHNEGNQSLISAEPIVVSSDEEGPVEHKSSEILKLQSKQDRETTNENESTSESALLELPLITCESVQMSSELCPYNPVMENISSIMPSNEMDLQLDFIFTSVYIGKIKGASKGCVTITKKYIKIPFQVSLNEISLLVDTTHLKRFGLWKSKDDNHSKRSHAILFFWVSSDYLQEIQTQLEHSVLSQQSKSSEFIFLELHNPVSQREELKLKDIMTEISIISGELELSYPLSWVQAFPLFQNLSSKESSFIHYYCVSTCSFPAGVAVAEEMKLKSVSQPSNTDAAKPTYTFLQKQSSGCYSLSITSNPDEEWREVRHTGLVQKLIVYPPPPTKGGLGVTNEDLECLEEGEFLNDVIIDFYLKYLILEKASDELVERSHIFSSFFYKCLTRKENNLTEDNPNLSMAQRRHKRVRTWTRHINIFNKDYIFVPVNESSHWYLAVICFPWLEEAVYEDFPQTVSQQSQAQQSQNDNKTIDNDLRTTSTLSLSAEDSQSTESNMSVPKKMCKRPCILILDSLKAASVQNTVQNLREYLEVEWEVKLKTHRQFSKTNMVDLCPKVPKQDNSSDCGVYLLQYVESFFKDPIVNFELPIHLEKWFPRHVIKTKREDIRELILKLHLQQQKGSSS

[6] = molecular target: T4, Sentrin-specific protease 7; assay: inhibition of human SENP7 cleavage activity – biochemical, luminescence, SAR follow-up (AID 504497); type: functional
[7] = molecular target: T1, Sentrin-specific protease 8; assay: inhibition of human SENP8 cleavage activity – biochemical, luminescence, SAR follow-up (AID 504501); type: functional
[8] = molecular target: T2, Caspase-3; assay: inhibition of recombinant caspase-3 activity – biochemical, luminescence, set 2, selectivity assay for SENP protease inhibitor project, SAR follow-up (AID 588599); type: functional
[9] = tested on: HEK293; assay: cells; type: functional, cell-based; conditions: Homo sapiens
[10] = molecular target: T5, Nuclear receptor subfamily 0 group B member 1 (Homo sapiens, UniProt P51843); assay: Luminescence-based cell-based high throughput dose response assay for inhibitors of the orphan nuclear receptor subfamily 0, group B, member 1 (DAX1; NR0B1). [Related pubchem assays (depositor defined):AID504766, AID504790]; type: functional
T5 sequence (P51843 whole entry): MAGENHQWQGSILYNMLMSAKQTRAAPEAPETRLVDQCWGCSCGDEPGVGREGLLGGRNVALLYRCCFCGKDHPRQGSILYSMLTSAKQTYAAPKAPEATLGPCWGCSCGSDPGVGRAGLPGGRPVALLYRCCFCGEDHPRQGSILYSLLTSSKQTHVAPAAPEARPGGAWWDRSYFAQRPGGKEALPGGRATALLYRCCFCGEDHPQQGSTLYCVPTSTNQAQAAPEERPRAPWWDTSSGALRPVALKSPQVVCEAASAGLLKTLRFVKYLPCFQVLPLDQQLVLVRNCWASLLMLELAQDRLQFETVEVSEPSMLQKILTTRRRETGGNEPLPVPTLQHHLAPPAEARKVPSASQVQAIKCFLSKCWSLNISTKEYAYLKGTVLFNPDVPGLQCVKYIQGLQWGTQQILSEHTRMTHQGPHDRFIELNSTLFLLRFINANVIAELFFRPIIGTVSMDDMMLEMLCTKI

[11] = molecular target: Protein disulfide-isomerase (Homo sapiens, UniProt P07237); assay: inhibition of PDI-driven insulin aggregation – biochemical, turbidity, absorbance, cherry-picked samples, dose response (AID 602350); type: functional
[12] = molecular target: T6, Short transient receptor potential channel 4 (Mus musculus, UniProt Q9QUQ5); assay: block of DAMGO-driven TRPC4 calcium entry – cell-based, HEK293 TRPC4/mu-opioid, Fluo-4 calcium, dose response (AID 434942); type: functional;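 also: potency of inhibitors blocking the TRPC4 calcium response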
T6 sequence (Q9QUQ5 whole entry): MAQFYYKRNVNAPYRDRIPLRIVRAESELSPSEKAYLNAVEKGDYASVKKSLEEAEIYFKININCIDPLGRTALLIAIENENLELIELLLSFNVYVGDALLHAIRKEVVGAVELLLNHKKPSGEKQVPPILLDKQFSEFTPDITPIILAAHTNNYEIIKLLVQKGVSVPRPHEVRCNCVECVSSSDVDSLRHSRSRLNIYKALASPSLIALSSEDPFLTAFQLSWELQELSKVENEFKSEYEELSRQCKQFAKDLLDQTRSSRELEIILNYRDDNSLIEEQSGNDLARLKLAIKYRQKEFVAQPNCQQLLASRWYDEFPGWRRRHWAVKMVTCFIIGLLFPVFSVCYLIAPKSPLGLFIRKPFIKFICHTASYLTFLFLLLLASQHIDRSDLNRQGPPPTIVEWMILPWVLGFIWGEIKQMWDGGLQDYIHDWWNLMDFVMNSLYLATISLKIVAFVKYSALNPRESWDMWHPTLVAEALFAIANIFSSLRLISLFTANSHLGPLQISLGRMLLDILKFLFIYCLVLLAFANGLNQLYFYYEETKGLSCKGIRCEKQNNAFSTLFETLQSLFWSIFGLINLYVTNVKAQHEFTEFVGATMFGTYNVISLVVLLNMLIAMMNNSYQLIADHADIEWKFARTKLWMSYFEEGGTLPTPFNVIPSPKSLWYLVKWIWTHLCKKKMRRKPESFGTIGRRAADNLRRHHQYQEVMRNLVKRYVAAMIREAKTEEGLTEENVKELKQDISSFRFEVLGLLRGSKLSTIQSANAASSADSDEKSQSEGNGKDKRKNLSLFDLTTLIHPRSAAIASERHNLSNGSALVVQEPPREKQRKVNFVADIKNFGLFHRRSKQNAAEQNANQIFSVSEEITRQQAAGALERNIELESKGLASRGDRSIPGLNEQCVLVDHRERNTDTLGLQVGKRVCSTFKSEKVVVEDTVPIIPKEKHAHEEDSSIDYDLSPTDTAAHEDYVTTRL

[13] = tested on: Candida albicans; assay: fluconazole-resistant Candida strain growth inhibitors – CaCi-8 strain, dry powder, set 4, dose response (AID 488950); type: functional, organism-based

Protein disulfide-isomerase, sequence (P07237 whole entry): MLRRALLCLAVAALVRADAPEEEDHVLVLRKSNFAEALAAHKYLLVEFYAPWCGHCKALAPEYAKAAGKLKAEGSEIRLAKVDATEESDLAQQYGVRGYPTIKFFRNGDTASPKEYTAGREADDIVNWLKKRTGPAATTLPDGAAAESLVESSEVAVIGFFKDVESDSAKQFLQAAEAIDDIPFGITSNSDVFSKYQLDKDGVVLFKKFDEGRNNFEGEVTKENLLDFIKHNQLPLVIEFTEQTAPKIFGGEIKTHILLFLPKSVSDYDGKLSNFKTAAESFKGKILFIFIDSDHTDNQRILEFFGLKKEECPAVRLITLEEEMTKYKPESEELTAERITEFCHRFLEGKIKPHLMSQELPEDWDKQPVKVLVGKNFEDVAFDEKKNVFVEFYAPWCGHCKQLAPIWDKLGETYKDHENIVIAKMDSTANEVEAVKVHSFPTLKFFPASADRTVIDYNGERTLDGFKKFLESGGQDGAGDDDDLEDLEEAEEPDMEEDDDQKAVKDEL

IC50 [2]: 5 µM (active)
IC50 [3]: 2.1 µM (active)
IC50 [4]: 1.83 µM (active)
IC50 [5]: 2.09 µM (active)
IC50 [6]: 1.7 µM (active)
IC50 [8]: 3.02 µM (active)
Compound: Fc1ccc(/C=C/c2nc(-c3ccccc3)no2)cc1
IC50 [1]: 1.81 µM (active)
IC50 [7]: 16 µM (active)

Compound: CC(C=NNc1ccc([N+](=O)[O-])cn1)=Cc1ccccc1
IC50 [9]: > 67.5 µM (inactive)
IC50 [10]: > 67.5 µM (inactive)

Compound: CC(Cc1ccccc1Sc1ccccc1O)N(C)C (stereo not drawn)
AC50 [11]: 15.9 µM (active)
EC50 [12]: 0.944 µM (active)

Compound: O=C(c1ccc(Cl)cc1)N1CCN(c2cccc(C(F)(F)F)n2)CC1
AC50 [13]: 172 µM (active)
